Holding throughout (format): cell-based
Test [1] has as its target T1, human KCa2.3 channels (Homo sapiens, UniProt P0DP23+Q9UGI6).
T1 construct: expressed in transfected cells; host or cells: HEK293
Kind of test: Inside-out patch-clamp potentiation of KCa2.3 channels expressed in HEK293 cells. The conditions noted are these: for EC50: inside-out patch, HEK293, 0.15 μM Ca2+, read-out: EC50 on potentiating KCa2.3 channels. The source says:
The effects of the two newly synthesized compounds on human KCa2.3 channels (FIG. 7A) were examined.
(§1) The effect of newly synthesized compounds on the KCa2.x/KCa3.1 channels was investigated as previously described (Nam, Y. W.; et al, Acta Physiol (Oxf) 2020, e13552; Nam, Y. W.; et al. Scientific reports 2018, 8 (1), 10749). Briefly, the rat KCa2.2a, human KCa2.1, human KCa2.3 or human KCa3.1 channels cDNA constructs were either generated in-house or through molecular cloning services (Genscript). The channel cDNAs, along with CaM and GFP, at a ratio of 7:4:2 (ORF ratios), were transfected into HEK293 cells by the calcium-phosphate method. KCa currents were recorded 1-2 days after transfection, with an Axon200B amplifier (Molecular Devices) at room temperature. The resistance of the patch electrodes ranged from 3-5 MΩ. The pipette solution contained (in mM): 140 KCl, 10 Hepes (pH 7.4), 1 MgSO4. The bath solution containing (in mM): 140 KCl, 10 Hepes (pH 7.2), 1 EGTA, 0.1 Dibromo-BAPTA, and 1 HEDTA was mixed with Ca^2+ to obtain the desired free Ca^2+ concentrations, calculated using the software by Chris Patton of Stanford University (https://somapp.ucdmc.ucdavis.edu/pharmacology/bers/maxchelator/webmaxc/webmaxcS.htm). […] Briefly, a standard curve was generated using the Ca^2+ buffers from the kit and a fluorescence Ca^2+ indicator. Then, the Ca^2+ concentrations of the bath solution were determined through interpolation on the standard curve.
(§2) High resistance seals (>1 GΩ) were formed before inside-out patches were obtained. […] Currents were recorded by repetitive 1-s-voltage ramps from −100 mV to +100 mV from a holding potential of 0 mV. […]
To measure the effect of CyPPA (Alomone Labs) and newly synthesized compounds, the intracellular face was exposed to bath solutions with 0.15 μM Ca^2+. One minute after switching of bath solutions, ten sweeps with a 1-s interval were recorded at a series of concentrations of compound in the presence of 0.15 μM Ca^2+. The maximal KCa2.x/KCa3.1 current in response to 10 μM Ca^2+ was then recorded. […]
For orientation: Patch clamp records ionic current or voltage across a cell membrane.

Test [2] concerns the target T2, human KCa3.1 channel (Homo sapiens, UniProt O15554+P0DP23).
T2 construct: expressed in transfected cells; host or cells: HEK293
Kind of test: Inside-out patch-clamp on KCa3.1 channels expressed in HEK293 cells. The settings on record: for response of KCa3.1 channels: inside-out patch; for Emax: normalized to 10 μM Ca2+. As to the method: (§3) The two newly synthesized compounds, 2o and 2q, were tested to determine whether they retained their subtype-selectivity. Neither 2o (FIG. 5A) nor 2q (FIG. 5B) elicited significant responses from the human KCa2.1 channel expressed in HEK293 cells. When compared with the responses from KCa2.2a channels to these two compounds, the differences became even more apparent (FIG. 5C), with the Emax values on KCa2.2a channels at ˜90%, whereas the Emax values on KCa2.1 channels were at ˜0% (FIG. 5D).
as §1, §2
(§4) To measure the effect of CyPPA (Alomone Labs) and newly synthesized compounds, the intracellular face was exposed to bath solutions with 0.15 μM Ca^2+. One minute after switching of bath solutions, ten sweeps with a 1-s interval were recorded at a series of concentrations of compound in the presence of 0.15 μM Ca^2+. The maximal KCa2.x/KCa3.1 current in response to 10 μM Ca^2+ was then recorded.
(§5) Patch-clamp recordings were analyzed using Clampfit 10.5 (Molecular Devices LLC) and concentration-response curves were analyzed in GraphPad Prism 9.0.2 (GraphPad Software Inc.). […] EC50 values and Hill coefficients were determined by fitting the data points to a standard concentration-response curve (Y=100/(1+(X/EC50)^−Hill)). […]

In test [3] the target is T3, human KCa2.1 channel (Homo sapiens, UniProt P0DP23+Q92952).
T3 construct: expressed in transfected cells; host or cells: HEK293
The test can be described thus: Inside-out patch-clamp on KCa2.1 channels expressed in HEK293 cells. The conditions noted are these: for response of KCa2.1 channels: inside-out patch; for Emax: normalized to 10 μM Ca2+. As to the method:
as §3, §1, §2, §4, §5

As for `Cc1cc(Nc2ccc(F)c(Cl)c2)nc(-n2nc(C)cc2C)n1` [Compound 2o, N-(3-Chloro-4-fluorophenyl)-2-(3,5-dimethyl-1H-pyrazol-1-yl)-6-methyl-pyrimidin-4-amine], in test [1], the “potency on KCa2.3 compared to KCa2.2a channels” value is given as “significantly smaller” and the EC50 (as a rule, the concentration giving half of the maximal effect) turned out to be 190 ± 23 nM. In test [2], the “response of KCa3.1 channels” value was “mostly insensitive” and the Emax – broadly, the maximal effect, on the per cent scale that the assay sets – was found to be 26.1 ± 7.67%. Besides, in test [3], the “response of KCa2.1 channels” value is “Lack of response” and the Emax was ~0%.
On to `Cc1cc(Nc2cc(Cl)ccc2F)nc(-n2nc(C)cc2C)n1` [Compound 2q, N-(5-Chloro-2-fluorophenyl)-2-(3,5-dimethyl-1H-pyrazol-1-yl)-6-methylpyrimidin-4-amine], for which the concentration for a half-maximal effect (EC50) in test [1] is 600 ± 35 nM. Also, in test [2], the “response of KCa3.1 channels” value is on record as “mostly insensitive” and the Emax is -0.79 ± 1.19%. Besides, in test [3], the “response of KCa2.1 channels” value is listed as “Lack of response” and the Emax was ~0%.

For the origin of these results see patent publication US12312333B2, “SK channel positive allosteric modulators” (Chapman University, priority 2021, dated 2025).
